#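 Test compounds were applied to cells in 96-well plates for 48 hours at 5 doses. GI50: concentration for 50% inhibition of growth.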 Calls of active or inactive are those of the source. Cut-off read from the data, not from the text of the source: active = GI50 up to about 1.1 µM and inactive = higher.
# Columns and labels:
# Test in all cases: DTP human tumour cell line panel, 48 h
# 786-0 = tested on: 786-0
# A549 = tested on: A549
# ACHN = tested on: ACHN
# CAKI-1 = tested on: CAKI-1
# CCRF-CEM = tested on: CCRF-CEM
# COLO 205 = tested on: COLO 205
# DLD-1 = tested on: DLD-1
# DMS-114 = tested on: DMS-114
# DMS-273 = tested on: DMS-273
# EKVX = tested on: EKVX
# HCC 2998 = tested on: HCC 2998
# HCT-116 = tested on: HCT-116
# HCT-15 = tested on: HCT-15
# HL-60 = tested on: HL-60
# HOP-18 = tested on: HOP-18
# HOP-62 = tested on: HOP-62
# HOP-92 = tested on: HOP-92
# HT-29 = tested on: HT-29
# IGROV-1 = tested on: IGROV-1
# K562 = tested on: K562
# KM-20L2 = tested on: KM-20L2
# KM12 = tested on: KM12
# LOX IMVI = tested on: LOX IMVI
# LXFL 529 = tested on: LXFL 529
# M14 = tested on: M14
# M19-MEL = tested on: M19-MEL
# MOLT-4 = tested on: MOLT-4
# Malme-3M = tested on: Malme-3M
# NCI-H226 = tested on: NCI-H226
# NCI-H23 = tested on: NCI-H23
# NCI-H460 = tested on: NCI-H460
# NCI-H522 = tested on: NCI-H522
# OVCAR-3 = tested on: OVCAR-3
# OVCAR-4 = tested on: OVCAR-4
# OVCAR-5 = tested on: OVCAR-5
# OVCAR-8 = tested on: OVCAR-8
# RPMI-8226 = tested on: RPMI-8226
# RXF 631 = tested on: RXF 631
# SF-268 = tested on: SF-268
# SF-295 = tested on: SF-295
# SF-539 = tested on: SF-539
# SK-MEL-28 = tested on: SK-MEL-28
# SK-MEL-2 = tested on: SK-MEL-2
# SK-MEL-5 = tested on: SK-MEL-5
# SK-OV-3 = tested on: SK-OV-3
# SN12C = tested on: SN12C
# SNB-19 = tested on: SNB-19
# SNB-75 = tested on: SNB-75
# SNB-78 = tested on: SNB-78
# SR = tested on: SR
# SW-620 = tested on: SW-620
# TK-10 = tested on: TK-10
# U-251 = tested on: U-251
# UACC-257 = tested on: UACC-257
# UACC-62 = tested on: UACC-62
# UO-31 = tested on: UO-31
# XF498 = tested on: XF498
smiles,measurement,setting,value
CCOC(=O)C1C(=O)c2ccccc2CN1Cc1ccccc1 (configuration not stated),GI50,786-0,> 100 µM (inactive)
same,GI50,A549,> 100 µM (inactive)
same,GI50,ACHN,> 100 µM (inactive)
same,GI50,CAKI-1,> 100 µM (inactive)
same,GI50,CCRF-CEM,> 100 µM (inactive)
same,GI50,COLO 205,> 100 µM (inactive)
same,GI50,DLD-1,> 100 µM (inactive)
same,GI50,DMS-114,> 100 µM (inactive)
same,GI50,DMS-273,> 100 µM (inactive)
same,GI50,EKVX,> 100 µM (inactive)
same,GI50,HCC 2998,> 100 µM (inactive)
same,GI50,HCT-116,> 100 µM (inactive)
same,GI50,HCT-15,> 100 µM
same,GI50,HL-60,> 100 µM (inactive)
same,GI50,HOP-18,> 100 µM (inactive)
same,GI50,HOP-62,> 100 µM (inactive)
same,GI50,HOP-92,> 100 µM (inactive)
same,GI50,HT-29,> 100 µM (inactive)
same,GI50,IGROV-1,> 100 µM (inactive)
same,GI50,K562,> 100 µM (inactive)
same,GI50,KM-20L2,> 100 µM (inactive)
same,GI50,KM12,> 100 µM (inactive)
same,GI50,LOX IMVI,> 100 µM (inactive)
same,GI50,LXFL 529,> 100 µM (inactive)
same,GI50,M14,> 100 µM (inactive)
same,GI50,M19-MEL,> 100 µM (inactive)
same,GI50,MOLT-4,> 100 µM (inactive)
same,GI50,Malme-3M,> 100 µM (inactive)
same,GI50,NCI-H226,> 100 µM (inactive)
same,GI50,NCI-H23,> 100 µM (inactive)
same,GI50,NCI-H460,> 100 µM (inactive)
same,GI50,NCI-H522,> 100 µM (inactive)
same,GI50,OVCAR-3,> 100 µM (inactive)
same,GI50,OVCAR-4,> 100 µM (inactive)
same,GI50,OVCAR-5,> 100 µM (inactive)
same,GI50,OVCAR-8,> 100 µM (inactive)
same,GI50,RPMI-8226,> 100 µM (inactive)
same,GI50,RXF 631,> 100 µM (inactive)
same,GI50,SF-268,> 100 µM (inactive)
same,GI50,SF-295,> 100 µM (inactive)
same,GI50,SF-539,> 100 µM (inactive)
same,GI50,SK-MEL-28,> 100 µM (inactive)
same,GI50,SK-MEL-2,> 100 µM (inactive)
same,GI50,SK-MEL-5,> 100 µM (inactive)
same,GI50,SK-OV-3,> 100 µM (inactive)
same,GI50,SN12C,> 100 µM (inactive)
same,GI50,SNB-19,> 100 µM (inactive)
same,GI50,SNB-75,> 100 µM (inactive)
same,GI50,SNB-78,> 100 µM (inactive)
same,GI50,SR,> 100 µM (inactive)
same,GI50,SW-620,> 100 µM (inactive)
same,GI50,TK-10,> 100 µM (inactive)
same,GI50,U-251,> 100 µM (inactive)
same,GI50,UACC-257,> 100 µM (inactive)
same,GI50,UACC-62,> 100 µM (inactive)
same,GI50,UO-31,> 100 µM (inactive)
same,GI50,XF498,> 100 µM (inactive)

# Reference: ChEMBL document CHEMBL1201862, “PubChem BioAssay data set” (2004)
